According to PubChem BioAssay AID1845195 (Molecular Pharmacology Branch, DTP, NCI, 2023):
Several values for one entry are separate records, joined by “and”; a condition that tells them apart may be missing. Identical values can stand only once.

System: 156681-154-R-J1 tumor spheroid viability
Assay: Anticancer human tumor 156681-154-R-J1 patient-derived melanoma cell line growth inhibition
Settings: spheroids with HUVEC and MSC; for viability, T/C: stronger effect = lower value
In short: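 Complex tumor spheroids combined malignant cells with endothelial cells and mesenchymal stem cells. DNA-damaging drugs and DNA repair inhibitors were tested alone and in combination, at half-log dilutions down from clinical Cmax (top 10 microM if Cmax unknown), 0.25% DMSO final.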

[1] = curve of first compound, second compound 0.003 µM
[2] = curve of first compound, second compound 0.00949 µM
[3] = curve of first compound, second compound 0.03 µM
[4] = curve of first compound, second compound 0.0949 µM
[5] = curve of first compound, second compound 0.3 µM
[6] = second compound 0.003 µM, first compound 0.0316 µM
[7] = second compound 0.003 µM, first compound 0.1 µM
[8] = second compound 0.003 µM, first compound 0.316 µM
[9] = second compound 0.003 µM, first compound 1 µM
[10] = second compound 0.003 µM, first compound 3.16 µM
[11] = second compound 0.003 µM, first compound 10 µM
[12] = second compound 0.00949 µM, first compound 0.0316 µM
[13] = second compound 0.00949 µM, first compound 0.1 µM
[14] = second compound 0.00949 µM, first compound 0.316 µM
[15] = second compound 0.00949 µM, first compound 1 µM
[16] = second compound 0.00949 µM, first compound 3.16 µM
[17] = second compound 0.00949 µM, first compound 10 µM
[18] = second compound 0.03 µM, first compound 0.0316 µM
[19] = second compound 0.03 µM, first compound 0.1 µM
[20] = second compound 0.03 µM, first compound 0.316 µM
[21] = second compound 0.03 µM, first compound 1 µM
[22] = second compound 0.03 µM, first compound 3.16 µM
[23] = second compound 0.03 µM, first compound 10 µM
[24] = second compound 0.0949 µM, first compound 0.0316 µM
[25] = second compound 0.0949 µM, first compound 0.1 µM
[26] = second compound 0.0949 µM, first compound 0.316 µM
[27] = second compound 0.0949 µM, first compound 1 µM
[28] = second compound 0.0949 µM, first compound 3.16 µM
[29] = second compound 0.0949 µM, first compound 10 µM
[30] = second compound 0.3 µM, first compound 0.0316 µM
[31] = second compound 0.3 µM, first compound 0.1 µM
[32] = second compound 0.3 µM, first compound 0.316 µM
[33] = second compound 0.3 µM, first compound 1 µM
[34] = second compound 0.3 µM, first compound 3.16 µM
[35] = second compound 0.3 µM, first compound 10 µM
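Further: spheroids exposed to compounds for 7 days before readout.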
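Wherever viability, T/C is given: percent of vehicle control viability where 100% = DMSO-treated spheroids.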

Row | SMILES | IC50 [1] | IC50 [2] | IC50 [3] | IC50 [4] | IC50 [5] | viability, T/C [6] | viability, T/C [7] | viability, T/C [8] | viability, T/C [9] | viability, T/C [10] | viability, T/C [11] | viability, T/C [12] | viability, T/C [13] | viability, T/C [14] | viability, T/C [15] | viability, T/C [16] | viability, T/C [17] | viability, T/C [18] | viability, T/C [19] | viability, T/C [20] | other results
1 | COc1cc(C)[nH]c(=O)c1CN1CCc2c(Cl)cc(C(OC)C3COC3)c(Cl)c2C1=O (configuration not stated) + CC[C@@]1(O)C(=O)OCc2c1cc1n(c2=O)Cc2cc3c(CN(C)C)c(O)ccc3nc2-1 | > 10 µM | > 10 µM | > 10 µM | < 0.0316 µM | < 0.0316 µM | 106% | 93.3% | 120% | 99% | 95.3% | 96.8% | 105% | 83.2% | 91.6% | 88.7% | 84.7% | 92.3% | 80.4% | 71.1% | 77% | viability, T/C [21]: 86.3%; viability, T/C [22]: 77.7%; viability, T/C [23]: 84.9%; viability, T/C [24]: 28.8%; viability, T/C [25]: 31.6%; viability, T/C [26]: 34.6%; viability, T/C [27]: 32.3%; viability, T/C [28]: 32.5%; viability, T/C [29]: 49.5%; viability, T/C [30]: 38.6%; viability, T/C [31]: 42.4%; viability, T/C [32]: 38.1%; viability, T/C [33]: 39.4%; viability, T/C [34]: 40.1%; viability, T/C [35]: 38.2%
2 | Cn1ncnc1[C@H]1c2n[nH]c(=O)c3cc(F)cc(c23)N[C@@H]1c1ccc(F)cc1 | – | – | – | – | – | – | – | – | – | – | – | – | – | – | – | – | – | – | – | – | viability, T/C (compound 0.00949 µM): 69.9% and 99.2% and 102%; viability, T/C (compound 0.03 µM): 71.1% and 90.5% and 84.6%; viability, T/C (compound 0.0949 µM): 79.2% and 71.3% and 86.4%; viability, T/C (compound 0.3 µM): 71.5% and 69% and 85.9%; viability, T/C (compound 0.949 µM): 67.1% and 59.8% and 73.4%; viability, T/C (compound 3 µM): 8.93% and 21.2% and 16.4%; IC50 (curve of compound): 1.33 µM and 0.993 µM and 1.5 µM
3 | CC(C)n1c(=O)n(C)c2cnc3cc(F)c(-c4ccc(OCCCN5CCCCC5)nc4)cc3c21 + CC[C@@]1(O)C(=O)OCc2c1cc1n(c2=O)Cc2cc3c(CN(C)C)c(O)ccc3nc2-1 | > 10 µM | > 10 µM | 0.0551 µM | < 0.0316 µM | < 0.0316 µM | 83% | 92.7% | 77.3% | 78.8% | 97.9% | 85.5% | 77.2% | 75% | 74.4% | 76.3% | 80.8% | 78.8% | 57.8% | 44.7% | 30.3% | viability, T/C [21]: 29.6%; viability, T/C [22]: 44.8%; viability, T/C [23]: 31.7%; viability, T/C [24]: 11.9%; viability, T/C [25]: 10.2%; viability, T/C [26]: 10.8%; viability, T/C [27]: 13.2%; viability, T/C [28]: 11.8%; viability, T/C [29]: 13.6%; viability, T/C [30]: 10.2%; viability, T/C [31]: 9.03%; viability, T/C [32]: 9.13%; viability, T/C [33]: 9.94%; viability, T/C [34]: 9.43%; viability, T/C [35]: 15%
